This is an account of results in patent US20240050428A1 (Cullgen (Shanghai), Inc., priority 2020, published 2024).

In one test the test system is MV4;11 cells. The experiment in a line: Cell viability assay (CellTiter-Glo) in MV4;11 cells, alone or with gilteritinib. Particulars: Homo sapiens, MV4-11, 72 h, MV4;11 cells, three days, CellTiter-Glo, read-out: MV4. The test is classed as cell-based.
A further test relates to MOLM-13 cells. The experiment in a line: Cell viability assay (CellTiter-Glo) in MOLM-13 cells, alone or with gilteritinib. The test is classed as cell-based. To be noted: Homo sapiens, MOLM-13, 72 h, MOLM-13 cells, three days, CellTiter-Glo.
Setting [1] is: compound alone (without gilteritinib), 11 IC50.
Setting [2] is: compound with gilteritinib 10 nM, 11 IC50 gilteritinib.
The mark [3] stands for this setting: compound alone (without gilteritinib), read-out: MOLM-13 IC50.
[4] abbreviates: compound with gilteritinib 20 nM, read-out: MOLM-13 IC50 gilteritinib.
Where [5] appears, read: with gilteritinib 10 nM, 11 IC50 gilteritinib.
Setting [6] is: with gilteritinib 20 nM, read-out: MOLM-13 IC50 gilteritinib.

Each structure is given as a SMILES string. Read-outs that look alike come from different tables or passages of the source. Where only a bound is given, the exact number is not on record here.

For the compound `C[C@@H]1CN(c2ccc3ncc(-c4cnn([C@H]5C[C@H](CCCNc6ccc7c(c6)C(=O)N(C6CCC(=O)NC6=O)C7=O)C5)c4)nc3c2)CCN1C` (stereo partly drawn) [GS-581, 5-((3-(trans-3-(4-(7-((R)-3,4-Dimethylpiperazin-1-yl)quinoxalin-2-yl)-1H-pyrazol-1-yl)cyclobutyl)propyl)amino)-2-(2,6-dioxopiperidin-3-yl)isoindoline-1,3-dione], the IC50 in the test on MV4;11 cells (setting [1]) was over 1000 nM; in the test with MV4;11 cells (setting [2]), 10 to 100 nM; with MOLM-13 cells (setting [3]), over 1000 nM; with MOLM-13 cells (setting [4]), under 10 nM.
Take `O=C1CCC(N2C(=O)c3ccc(NC4CCC(CCn5cc(-c6cnc7ccccc7n6)cn5)CC4)cc3C2=O)C(=O)N1` (stereo not drawn) [GS-183, 2-(2,6-Dioxopiperidin-3-yl)-5-((4-(2-(4-(quinoxalin-2-yl)-1H-pyrazol-1-yl)ethyl)cyclohexyl)amino)isoindoline-1,3-dione]: the IC50 is 100 to 1000 nM in the test with MV4;11 cells (setting [1]), 100 to 1000 nM in the test on MV4;11 cells (setting [5]), over 1000 nM with MOLM-13 cells (setting [3]) and 100 to 1000 nM in the test on MOLM-13 cells (setting [6]).
For the compound `O=C1CCC(N2Cc3cc(Nc4ccnc(Nc5ccc6c(c5)CC(N5CCC(n7cc(-c8cnc9cccc(Br)c9n8)cn7)CC5)C6)n4)ccc3C2=O)C(=O)N1` (stereo not drawn) [GS-072, 3-(5-((2-((2-(4-(4-(8-Bromoquinoxalin-2-yl)-1H-pyrazol-1-yl)piperidin-1-yl)-2,3-dihydro-1H-inden-5-yl)amino)pyrimidin-4-yl)amino)-1-oxoisoindolin-2-yl)piperidine-2,6-dione], the IC50 is over 1000 nM with MV4;11 cells (setting [1]), 100 to 1000 nM in the test on MV4;11 cells (setting [5]), over 1000 nM with MOLM-13 cells (setting [3]) and 100 to 1000 nM in the test with MOLM-13 cells (setting [6]).
On to `Cc1nn([C@H]2C[C@H](CNc3ccc4c(c3)C(=O)N(C3CCC(=O)NC3=O)C4=O)C2)cc1-c1cnc2ccccc2n1` (stereo partly drawn) [GS-200, 2-(2,6-Dioxopiperidin-3-yl)-5-(((trans-3-(3-methyl-4-(quinoxalin-2-yl)-1H-pyrazol-1-yl)cyclobutyl)methyl)amino)isoindoline-1,3-dione], for which the IC50 with MV4;11 cells (setting [1]) fell in the range of 100 to 1000 nM; with MV4;11 cells (setting [5]), 10 to 100 nM; with MOLM-13 cells (setting [3]), 100 to 1000 nM; with MOLM-13 cells (setting [6]), 10 to 100 nM.
Take `O=C1CCC(N2Cc3c(Nc4ccnc(Nc5ccc(CN6CCC(n7cc(-c8cnc9cccc(Br)c9n8)cn7)CC6)cc5)n4)cccc3C2=O)C(=O)N1` (stereo not drawn) [GS-030, 3-(4-((2-((4-((4-(4-(8-Bromoquinoxalin-2-yl)-1H-pyrazol-1-yl)piperidin-1-yl)methyl)phenyl)amino)pyrimidin-4-yl)amino)-1-oxoisoindolin-2-yl)piperidine-2,6-dione]: the IC50 in the test on MV4;11 cells (setting [1]), with MV4;11 cells (setting [5]), in the test with MOLM-13 cells (setting [3]) and in the test with MOLM-13 cells (setting [6]) was over 1000 nM each time.
As to `O=C1CCC(N2C(=O)c3ccc(NCCC[C@H]4C[C@H](n5cc(-c6nccc7cccnc67)c(C6CC6)n5)C4)cc3C2=O)C(=O)N1` (stereo partly drawn) [GS-625, 5-((3-(trans-3-(3-Cyclopropyl-4-(1,7-naphthyridin-8-yl)-1H-pyrazol-1-yl)cyclobutyl)propyl)amino)-2-(2,6-dioxopiperidin-3-yl)isoindoline-1,3-dione], the IC50 in the test on MV4;11 cells (setting [1]) was 10 to 100 nM; in the test with MV4;11 cells (setting [2]), under 10 nM; in the test with MOLM-13 cells (setting [3]) it was 100 to 1000 nM; in the test with MOLM-13 cells (setting [4]), 10 to 100 nM.
As to `O=C1CCC(N2C(=O)c3ccc(NCCCCCC(=O)N4CCC(n5cc(-c6cnc7cccc(N8CCNCC8)c7n6)cn5)CC4)cc3C2=O)C(=O)N1` (stereo not drawn) [GS-035, 2-(2,6-Dioxopiperidin-3-yl)-5-((6-oxo-6-(4-(4-(8-(piperazin-1-yl)quinoxalin-2-yl)-1H-pyrazol-1-yl)piperidin-1-yl)hexyl)amino)isoindoline-1,3-dione], the IC50 is 10 to 100 nM with MV4;11 cells (setting [1]), under 10 nM in the test on MV4;11 cells (setting [5]), over 1000 nM in the test on MOLM-13 cells (setting [3]) and under 10 nM in the test on MOLM-13 cells (setting [6]).
With `CC(C)c1cccc(-c2cnn([C@H]3C[C@H](CCCNc4ccc5c(c4)C(=O)N(C4CCC(=O)NC4=O)C5=O)C3)c2)n1` (stereo partly drawn) [GS-453, 2-(2,6-dioxopiperidin-3-yl)-5-((3-(trans-3-(4-(6-isopropylpyridin-2-yl)-1H-pyrazol-1-yl)cyclobutyl)propyl)amino)isoindoline-1,3-dione], the IC50 is 10 to 100 nM in the test on MV4;11 cells (setting [1]), 10 to 100 nM with MV4;11 cells (setting [2]), 100 to 1000 nM in the test with MOLM-13 cells (setting [3]) and 10 to 100 nM in the test with MOLM-13 cells (setting [4]).
Turning to `Cn1ccc2c(-c3cn([C@H]4C[C@H](CNc5ccc6c(c5)C(=O)N(C5CCC(=O)NC5=O)C6=O)C4)nc3C3CC3)nccc21` (stereo partly drawn) [GS-615, 5-(((trans-3-(3-Cyclopropyl-4-(1-methyl-1H-pyrrolo[3,2-c]pyridin-4-yl)-1H-pyrazol-1-yl)cyclobutyl)methyl)amino)-2-(2,6-dioxopiperidin-3-yl)isoindoline-1,3-dione], the IC50 is 10 to 100 nM in the test on MV4;11 cells (setting [1]), under 10 nM with MV4;11 cells (setting [2]), 10 to 100 nM in the test on MOLM-13 cells (setting [3]) and under 10 nM in the test with MOLM-13 cells (setting [4]).
With `CC(CCCNc1ccc2c(c1)C(=O)N(C1CCC(=O)NC1=O)C2=O)C(=O)N1CCC(n2cc(-c3cnc4ccccc4n3)cn2)CC1` (stereo not drawn) [GS-138, 2-(2,6-Dioxopiperidin-3-yl)-5-((4-methyl-5-oxo-5-(4-(4-(quinoxalin-2-yl)-1H-pyrazol-1-yl)piperidin-1-yl)pentyl)amino)iaoindoline-1,3-dione], the IC50 in the test on MV4;11 cells (setting [1]), in the test with MV4;11 cells (setting [5]), in the test on MOLM-13 cells (setting [3]) and in the test on MOLM-13 cells (setting [6]) was over 1000 nM in each case.
For the compound `Cc1ccnc(-c2cnn([C@H]3C[C@H](CCCNc4ccc5c(c4)C(=O)N(C4CCC(=O)NC4=O)C5=O)C3)c2)c1` (stereo partly drawn) [GS-603, 2-(2,6-Dioxopiperidin-3-yl)-5-((3-(trans-3-(4-(4-methylpyridin-2-yl)-1H-pyrazol-1-yl)cyclobutyl)propyl)amino)isoindoline-1,3-dione], the IC50 is 10 to 100 nM with MV4;11 cells (setting [1]), under 10 nM in the test on MV4;11 cells (setting [2]), 100 to 1000 nM with MOLM-13 cells (setting [3]) and 10 to 100 nM in the test on MOLM-13 cells (setting [4]).
Regarding `O=C1CCC(N2C(=O)c3ccc(NCCC[C@H]4C[C@H](n5cc(-c6cnc7ccccc7n6)c(C6CC6)n5)C4)cc3C2=O)C(=O)N1` (stereo partly drawn) [GS-568, 5-((3-((trans)-3-(3-Cyclopropyl-4-(quinoxalin-2-yl)-1H-pyrazol-1-yl)cyclobutyl)propyl)amino)-2-(2,6-dioxopiperidin-3-yl)isoindoline-1,3-dione], the IC50 was 10 to 100 nM in the test on MV4;11 cells (setting [1]), under 10 nM in the test on MV4;11 cells (setting [2]), 10 to 100 nM in the test with MOLM-13 cells (setting [3]) and under 10 nM in the test on MOLM-13 cells (setting [4]).
For `O=C1CCC(N2Cc3ccc(CCCCCC(=O)N4CCC(c5ccccn5)CC4)cc3C2=O)C(=O)N1` (stereo not drawn) [GS-104, 3-(1-Oxo-6-(6-oxo-6-(4-(pyridin-2-yl)piperidin-1-yl)hexyl)isoindolin-2-yl)piperidine-2,6-dione], the IC50 in the test with MV4;11 cells (setting [1]) was 100 to 1000 nM; with MV4;11 cells (setting [5]) it was 100 to 1000 nM; in the test with MOLM-13 cells (setting [3]) it was over 1000 nM; in the test with MOLM-13 cells (setting [6]) it was 100 to 1000 nM.
On to `Cc1cccnc1-c1cn([C@H]2C[C@H](CNc3ccc4c(c3)C(=O)N(C3CCC(=O)NC3=O)C4=O)C2)nc1C1CC1` (stereo partly drawn) [GS-261, 5-(((trans-3-(3-Cyclopropyl-4-(3-methylpyridin-2-yl)-1H-pyrazol-1-yl)cyclobutyl)methyl)amino)-2-(2,6-dioxopiperidin-3-yl)isoindoline-1,3-dione], for which the IC50 with MV4;11 cells (setting [1]), with MV4;11 cells (setting [5]), in the test on MOLM-13 cells (setting [3]) and with MOLM-13 cells (setting [6]) was under 10 nM each time.
For `O=C1CCC(N2C(=O)c3ccc(NCCC[C@H]4C[C@H](n5cc(-c6cnc7cc(N8CCNCC8)ccc7n6)cn5)C4)cc3C2=O)C(=O)N1` (stereo partly drawn) [GS-401, 2-(2,6-Dioxopiperidin-3-yl)-5-((3-(trans-3-(4-(6-(piperazin-1-yl)quinoxalin-2-yl)-1H-pyrazol-1-yl)cyclobutyl)propyl)amino)isoindoline-1,3-dione], the IC50 in the test with MV4;11 cells (setting [1]) is 10 to 100 nM; with MV4;11 cells (setting [5]), under 10 nM; in the test with MOLM-13 cells (setting [3]), 10 to 100 nM; with MOLM-13 cells (setting [6]), under 10 nM.
Regarding `CN1CCN(c2ccc3nc(-c4cnn([C@H]5C[C@H](CCCNc6ccc7c(c6)C(=O)N(C6CCC(=O)NC6=O)C7=O)C5)c4)cnc3c2)CC1` (stereo partly drawn) [GS-397, 2-(2,6-Dioxopiperidin-3-yl)-5-((3-(trans-3-(4-(6-(4-methylpiperazin-1-yl)quinoxalin-2-yl)-1H-pyrazol-1-yl)cyclobutyl)propyl)amino)isoindoline-1,3-dione], the IC50 was 10 to 100 nM in the test on MV4;11 cells (setting [1]), under 10 nM in the test on MV4;11 cells (setting [5]), 10 to 100 nM in the test on MOLM-13 cells (setting [3]) and under 10 nM with MOLM-13 cells (setting [6]).
As for `O=C1CCC(N2Cc3ccc(CCCCCC(=O)N4CCC(c5cccc(Cl)c5)CC4)cc3C2=O)C(=O)N1` (stereo not drawn) [GS-113, 3-(6-(6-(4-(3-Chlorophenyl)piperidin-1-yl)-6-oxohexyl)-1-oxoisoindolin-2-yl)piperidine-2,6-dione], the IC50 is 10 to 100 nM in the test on MV4;11 cells (setting [1]), under 10 nM in the test on MV4;11 cells (setting [5]), over 1000 nM in the test with MOLM-13 cells (setting [3]) and 10 to 100 nM in the test with MOLM-13 cells (setting [6]).
Take `O=C(CC1CC1N1CCC(n2cc(-c3cnc4ccccc4n3)cn2)CC1)NCc1ccc2c(c1)CN(C1CCC(=O)NC1=O)C2=O` (stereo not drawn) [GS-083, N-((2-(2,6-Dioxopiperidin-3-yl)-1-oxoisoindolin-5-yl)methyl)-2-(2-(4-(4-(quinoxalin-2-yl)-1H-pyrazol-1-yl)piperidin-1-yl)cyclopropyl)acetamide]: the IC50 fell in the range of 10 to 100 nM in the test on MV4;11 cells (setting [1]), 10 to 100 nM with MV4;11 cells (setting [5]), 100 to 1000 nM with MOLM-13 cells (setting [3]) and 10 to 100 nM in the test on MOLM-13 cells (setting [6]).
